Converted amounts (≈) assume the structure as drawn. The source made the active and inactive calls. The rule behind the calls is not given here.

The term IC50 denotes the concentration that gives 50% inhibition. High values mean weaker potency in that assay, low ones greater potency in that assay. Usually solubility stands for the dissolved amount per volume that the medium holds.

Data set [1] has as its target Matrix metalloproteinase-9 (Homo sapiens, UniProt P14780). Description: Inhibition of proMMP-9 (unknown origin).
Data set [2] deals with Stromelysin-1 (Homo sapiens) (UniProt P08254). The experiment in a line: Inhibition of MMP-3 catalytic activity (unknown origin).
Sequence of Stromelysin-1 (Homo sapiens) (P08254 100-477 limits assumed): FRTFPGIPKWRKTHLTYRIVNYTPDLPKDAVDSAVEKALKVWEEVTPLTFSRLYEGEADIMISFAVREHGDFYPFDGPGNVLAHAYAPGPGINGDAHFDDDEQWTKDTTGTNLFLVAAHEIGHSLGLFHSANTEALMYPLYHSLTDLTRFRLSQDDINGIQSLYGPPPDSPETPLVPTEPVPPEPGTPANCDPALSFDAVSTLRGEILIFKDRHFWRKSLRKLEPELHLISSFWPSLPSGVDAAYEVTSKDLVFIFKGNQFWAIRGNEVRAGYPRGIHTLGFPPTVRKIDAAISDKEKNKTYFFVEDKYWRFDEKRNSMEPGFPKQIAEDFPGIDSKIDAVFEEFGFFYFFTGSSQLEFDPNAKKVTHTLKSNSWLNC
Data set [3] in a line: Solubility of compound. Type of data set: physicochemical.
Another data set has as its target Collagenase 3 (Homo sapiens, UniProt P45452). The experiment in a line: Inhibition of proMMP-13 (unknown origin).
The target in data set [4] is 72 kDa type IV collagenase (Homo sapiens, UniProt P08253). The experiment in a line: Inhibition of proMMP-2 (unknown origin).
Sequence of 72 kDa type IV collagenase (P08253 whole entry): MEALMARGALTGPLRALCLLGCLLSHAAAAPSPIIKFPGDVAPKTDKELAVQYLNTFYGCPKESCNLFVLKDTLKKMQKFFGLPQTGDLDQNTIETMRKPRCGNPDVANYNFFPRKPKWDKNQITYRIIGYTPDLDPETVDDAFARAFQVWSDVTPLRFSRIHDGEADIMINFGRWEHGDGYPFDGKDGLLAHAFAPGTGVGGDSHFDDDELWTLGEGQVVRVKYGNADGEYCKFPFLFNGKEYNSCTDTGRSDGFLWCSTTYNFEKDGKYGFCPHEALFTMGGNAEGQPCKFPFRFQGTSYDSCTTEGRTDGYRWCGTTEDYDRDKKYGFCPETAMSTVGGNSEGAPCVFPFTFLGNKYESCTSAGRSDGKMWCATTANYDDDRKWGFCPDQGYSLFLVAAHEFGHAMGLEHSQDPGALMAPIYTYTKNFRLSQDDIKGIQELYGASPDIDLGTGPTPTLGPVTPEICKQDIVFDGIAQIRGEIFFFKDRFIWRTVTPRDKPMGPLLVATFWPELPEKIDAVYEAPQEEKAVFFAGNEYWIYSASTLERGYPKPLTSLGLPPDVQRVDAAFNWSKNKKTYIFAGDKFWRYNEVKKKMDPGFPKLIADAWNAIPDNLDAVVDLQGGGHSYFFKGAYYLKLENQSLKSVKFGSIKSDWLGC

Sequence of Matrix metalloproteinase-9 (P14780 whole entry): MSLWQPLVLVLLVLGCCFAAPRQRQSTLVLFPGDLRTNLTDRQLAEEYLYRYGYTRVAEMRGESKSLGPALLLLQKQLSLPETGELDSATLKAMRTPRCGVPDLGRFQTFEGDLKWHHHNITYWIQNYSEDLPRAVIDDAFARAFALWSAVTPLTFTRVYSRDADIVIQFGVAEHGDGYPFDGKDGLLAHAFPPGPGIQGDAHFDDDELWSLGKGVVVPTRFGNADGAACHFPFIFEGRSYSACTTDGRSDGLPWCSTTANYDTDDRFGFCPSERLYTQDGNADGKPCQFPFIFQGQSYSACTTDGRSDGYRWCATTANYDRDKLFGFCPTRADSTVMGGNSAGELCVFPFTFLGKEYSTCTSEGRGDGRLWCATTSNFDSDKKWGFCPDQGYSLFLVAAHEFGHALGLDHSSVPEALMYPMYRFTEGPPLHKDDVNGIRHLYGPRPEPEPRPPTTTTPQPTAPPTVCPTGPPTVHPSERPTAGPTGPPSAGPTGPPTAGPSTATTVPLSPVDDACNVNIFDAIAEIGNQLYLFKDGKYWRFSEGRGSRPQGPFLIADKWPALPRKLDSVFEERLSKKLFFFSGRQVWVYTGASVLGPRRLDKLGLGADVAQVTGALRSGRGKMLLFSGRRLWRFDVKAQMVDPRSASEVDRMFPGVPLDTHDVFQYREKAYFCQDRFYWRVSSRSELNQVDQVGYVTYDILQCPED

With `CNc1cc(F)cc2cc(C(=O)N3CCc4ccc(C(=O)NCCN5CCCC5)cc4C3)[nH]c12`, the midpoint of inhibition in data set [1], the IC50, lay at 2600 nM. For the same compound, the inhibition result in data set [2] was “inactive”.

In data set [1], `C[C@]1(O)C[C@@H](c2ccc3cc(C(=O)N4CCCc5cnccc5C4)[nH]c3c2)C1` showed an IC50 of 160 nM. In addition, the solubility in data set [3] is 3 µg/mL (≈ 7.99 µM).

As for `O=C(c1cc2ccc(C3CC3)cc2[nH]1)N1CCc2ocnc2C1`, in data set [1], the IC50 was determined as 1100 nM.

Take `CC(C)(O)c1ccc2cc(C(=O)N3CCCc4cnc(N)c(F)c4C3)[nH]c2c1`: the IC50 in data set [1] was 44 nM; against Collagenase 3 it was over 30000 nM; in data set [4], over 30000 nM.

In data set [1], `CC(C)(O)c1ccc2cc(C(=O)N3CCCc4cnccc4C3)[nH]c2c1` returned an IC50 of 580 nM. Further, the solubility in data set [3] was over 35 µg/mL.

`O=C(c1cc2ccc(C3CC3)cc2[nH]1)N1CCCc2cnccc2C1`: the IC50 in data set [1] amounted to 81 nM. The compound also returned a solubility in data set [3] of 8.6 µg/mL (≈ 25.9 µM).

In turn, `O=C(c1cc2ccc(C3CCC3)cc2[nH]1)N1CCCc2cnccc2C1` displayed an IC50 in data set [1] of 120 nM. In data set [3], this compound gave a solubility of 0.4 µg/mL (≈ 1.16 µM).

`O=C(c1cc2ccc(CCO)cc2[nH]1)N1CCCc2cnccc2C1`: the IC50 in data set [1] was found to be 1100 nM. Also, in data set [3], the solubility was over 33 µg/mL.

In the case of `O=C(c1cc2ccc(C3CC3)cc2[nH]1)N1CCc2cnccc2C1`, in data set [1], the IC50 is over 50000 nM.

The compound `O=C(NCCN1CCCC1)c1ccc2c(c1)CN(C(=O)c1cc3c(F)cc(C4CC4)cc3[nH]1)CC2` returned an IC50 in data set [1] of 1000 nM.

Regarding `CCc1ccc2cc(C(=O)N3CCCc4cnccc4C3)[nH]c2c1`, the 50% inhibitory concentration (IC50) in data set [1] stood at 120 nM. Besides, in data set [3], the concentration in solution (solubility) was 0.8 µg/mL (≈ 2.5 µM).

Take `O=C(c1cc2ccc(C3CC3)cc2[nH]1)N1CCc2ccccc2C1`: the IC50 in data set [1] was over 50000 nM.

Consider `CCc1cccc2c(C(=O)N3CCc4ocnc4C3)n[nH]c12`, for which, in data set [1], half-maximal inhibition (IC50) required 8500 nM. Moreover, the inhibition result in data set [2] was “inactive”.

As to `CC(C)(C)c1ccc2cc(C(=O)N3CCCc4cnccc4C3)[nH]c2c1`, the IC50 in data set [1] stood at 110 nM. Moreover, the solubility in data set [3] is 1.3 µg/mL (≈ 3.74 µM).

Source of the values: ChEMBL document CHEMBL5584207, “Discovery of novel indole derivatives as potent and selective inhibitors of proMMP-9 activation” (Bioorg Med Chem Lett, 2024).
